From the supplement of paper PMC13380429

Experiments:
Conditions in all cases: 72 h
[1] = tested on: Caco-2; assay: cell viability relative to DMSO; higher = less toxic
[2] = tested on: Calu-3; assay: as above
[3] = tested on: HepG2; assay: as above
[4] = tested on: U2OS; assay: as above
[5] = tested on: Vero E6; assay: as above
[6] = tested on: Calu-3; assay: relative viability EC50 (midpoint between 100% and the lowest measured viability); higher = less toxic
[7] = tested on: HepG2; assay: as above
[8] = tested on: U2OS; assay: as above
[9] = tested on: Vero E6; assay: as above
[10] = tested on: Caco-2; assay: drug sensitivity score (DSS) for viability; higher = more toxic; extreme values may be limits of the assay
[11] = tested on: Calu-3; assay: as above
[12] = tested on: HepG2; assay: as above
[13] = tested on: U2OS; assay: as above
[14] = tested on: Vero E6; assay: as above

SMILES | cell viability ([1]; 1 nM) [%] | cell viability ([1]; 10 nM) [%] | cell viability ([1]; 100 nM) [%] | cell viability ([1]; 1000 nM) [%] | cell viability ([1]; 10000 nM) [%] | cell viability ([2]; 1 nM) [%] | cell viability ([2]; 10 nM) [%] | cell viability ([2]; 100 nM) [%] | cell viability ([2]; 1000 nM) [%] | cell viability ([2]; 10000 nM) [%] | cell viability ([3]; 1 nM) [%] | cell viability ([3]; 10 nM) [%] | cell viability ([3]; 100 nM) [%] | cell viability ([3]; 1000 nM) [%] | cell viability ([3]; 10000 nM) [%] | cell viability ([4]; 1 nM) [%] | cell viability ([4]; 10 nM) [%] | cell viability ([4]; 100 nM) [%] | cell viability ([4]; 1000 nM) [%] | cell viability ([4]; 10000 nM) [%] | cell viability ([5]; 1 nM) [%] | cell viability ([5]; 10 nM) [%] | cell viability ([5]; 100 nM) [%] | cell viability ([5]; 1000 nM) [%] | cell viability ([5]; 10000 nM) [%] | relative viability EC50 [6] [µM] | relative viability EC50 [7] [µM] | relative viability EC50 [8] [µM] | relative viability EC50 [9] [µM] | drug sensitivity score [10] | drug sensitivity score [11] | drug sensitivity score [12] | drug sensitivity score [13] | drug sensitivity score [14]
OC(CNCC(O)C1CCc2cc(F)ccc2O1)C1CCc2cc(F)ccc2O1 (stereo not drawn) [nebivolol] | 114 | 102 | 95.1 | 89.7 | 72.8 | 94.9 | 93.2 | 103 | 105 | 92.7 | 107 | 112 | 110 | 98.4 | 88.9 | 97.2 | 94.3 | 93.9 | 99.8 | 99.6 | 100 | 102 | 91.7 | 94.2 | 95.1 | > 10 | > 10 | > 10 | > 10 | 1.9 | 0 | 0 | 0 | 0
NC(=O)N1c2ccccc2CC(=O)c2ccccc21 [oxcarbazepine] | – | – | – | – | – | 96.1 | 93.6 | 82.6 | 105 | 95.1 | 90.8 | 92.3 | 115 | 90.7 | 87.5 | 101 | 100 | 101 | 96.7 | 99.1 | – | – | – | – | – | > 10 | > 10 | > 10 | – | – | 0 | 0.5 | 0 | –
CCN1CCCC(OC(=O)C(c2ccccc2)c2ccccc2)C1 (stereo not drawn) [piperidolate] | 89 | 90.3 | 70.2 | 79.2 | 77.9 | 99.1 | 95.2 | 102 | 105 | 89.3 | 105 | 89.1 | 115 | 97.8 | 110 | 98.4 | 100 | 100 | 100 | 92.4 | 98.8 | 98.7 | 98 | 98 | 98.2 | > 10 | > 10 | > 10 | > 10 | 7 | 0 | 0 | 0 | 0
O=C(O)C[C@H](O)C[C@H](O)/C=C/c1c(C2CC2)nc2ccccc2c1-c1ccc(F)cc1 [pitavastatin] | 103 | 93.6 | 97.3 | 89.4 | 70.3 | 103 | 98.1 | 99.2 | 84.7 | 56.4 | 88.5 | 97.1 | 82 | 95.7 | 57.1 | 98.7 | 97 | 100 | 68.3 | 9.6 | 93.9 | 105 | 88.7 | 78 | 6.4 | – | – | 1.28 | 1.62 | 2.4 | 4.4 | 2.9 | 9.4 | 8.5
CC[C@H](CO)Nc1nc(NCc2ccccc2)c2ncn(C(C)C)c2n1 [roscovitine] | – | – | – | – | – | – | – | – | – | – | – | – | – | – | – | – | – | – | – | – | – | – | – | – | – | – | – | – | – | – | 0 | 0 | 0 | 0
N=C(N)NS(=O)(=O)c1ccc(N)cc1 [sulfaguanidine] | – | – | – | – | – | – | – | – | – | – | – | – | – | – | – | – | – | – | – | – | – | – | – | – | – | – | – | – | – | – | 0 | 0 | 0 | 0
Cc1ccc(C(C)C)c(O)c1 [thymol] | – | – | – | – | – | – | – | – | – | – | – | – | – | – | – | – | – | – | – | – | – | – | – | – | – | – | – | – | – | – | 0 | 0 | 0 | 0
Cn1ncc(Cl)c1-c1cc(C(=O)N[C@H](CN)Cc2ccc(F)c(F)c2)oc1Cl [uprosertib] | 98.7 | 99.3 | 86.2 | 71.5 | 53.9 | 104 | 107 | 78.4 | 80.5 | 49.9 | 101 | 97.4 | 101 | 85.2 | 68.4 | 95.1 | 99.8 | 94.5 | 96.5 | 76.3 | 106 | 102 | 102 | 94.9 | 83.6 | 0.693 | – | > 10 | > 10 | 6.5 | 5.8 | 3.3 | 1.4 | 0.8
Cc1cccc(OCC(O)CNC(C)(C)C)c1C (stereo not drawn) [xibenolol] | 74.6 | 95.8 | 80.1 | 94.3 | 100 | 106 | 92.9 | 95.6 | 101 | 103 | – | – | – | – | – | 102 | 97.4 | 99.2 | 94.6 | 110 | 104 | 99.3 | 100 | 107 | 95.4 | > 10 | – | > 10 | > 10 | 0.7 | 0 | – | 0 | 0
